Assay in all cases: ≥ marks a high value that may be exact or a test limit, other limits are often not marked, values filed in µg/mL are converted to µM
Assay [1] concerns Candida albicans ATCC 3007.
For assay [2], the system named is Escherichia coli ATCC 25629.
For assay [3], the system named is Escherichia coli.
The subject of assay [4] is Shigella dysenteriae ATCC 2932.
For assay [5], the system named is Shigella dysenteriae.
Assay [6] concerns Staphylococcus aureus ATCC 2576.
Assay [7] deals with Staphylococcus aureus.
The subject of assay [8] is Acinetobacter baumannii I NM8.
The test system of assay [9] is Candida albicans ATCC 90028.
The subject of assay [10] is Escherichia coli ATCC 25726.
Assay [11] deals with Escherichia coli ATCC 25922.
Assay [12] has as its system Klebsiella pneumoniae ATCC 700603.
The test system of assay [13] is Staphylococcus aureus ATCC 25923.
Assay [14] relates to Staphylococcus aureus NCTC 8325.
In assay [15] the test system is Bacillus megaterium Bm11.
For assay [16], the system named is Bacillus subtilis KCTC 3068.
The test system of assay [17] is Candida albicans.
The subject of assay [18] is Cryptococcus neoformans.
In assay [19] the test system is Enterococcus faecium.
Assay [20] has as its system Escherichia coli D21.
The test system of assay [21] is Escherichia coli KCTC 1682.
In assay [22] the test system is Escherichia coli ML-35.
The test system of assay [23] is Escherichia coli O18:K1:H7 Bort.
Assay [24] concerns Pseudomonas aeruginosa ATCC 27853.
In assay [25] the test system is Pseudomonas aeruginosa KCTC 1637.
Assay [26] concerns Salmonella enterica subsp. enterica serovar Typhimurium ATCC 14028.
Assay [27] concerns Salmonella typhimurium KCTC 1926.
The subject of assay [28] is Serratia marcescens ATCC 8100.
For assay [29], the system named is Serratia marcescens.
Assay [30] relates to Staphylococcus aureus Cowan 1.
Assay [31] relates to Staphylococcus aureus KCTC 1621.
In assay [32] the test system is Staphylococcus epidermidis ATCC 12228.
For assay [33], the system named is Staphylococcus epidermidis KCTC 1917.
The test system of assay [34] is Streptococcus agalactiae.

Converted amounts (≈) assume the structure as drawn. “And” between values parts separate entries of the source, which are not always exact repeats. Equal values may be shown once.

The term MIC denotes the smallest concentration in the dilution series that meets the test's criterion for growth inhibition. Low readings indicate greater potency, high ones weaker potency. Regarding `CSCC[C@H](NC(=O)[C@H](CCCCN)NC(=O)[C@@H]1CCCN1C(=O)[C@H](CC(C)C)NC(=O)[C@@H](N)Cc1ccccc1)C(=O)N[C@@H](CO)C(=O)N[C@H](C(=O)N[C@@H](CCCCN)C(=O)N[C@@H](CC(C)C)C(=O)N[C@@H](CCCN=C(N)N)C(=O)N[C@H](C(=O)N1CCC[C@H]1C(=O)N[C@@H](Cc1ccc(O)cc1)C(=O)N[C@@H](CCCN=C(N)N)C(=O)N[C@@H](CCCN=C(N)N)C(=O)NCC(=O)N[C@H](C(=O)N[C@@H](CCCCN)C(=O)N[C@@H](CC(=O)O)C(=O)N[C@@H](Cc1ccc(O)cc1)C(=O)N[C@@H](Cc1cnc[nH]1)C(=O)O)[C@@H](C)O)C(C)C)[C@@H](C)O` [FLPKMSTKLRVPYRRGTKDYH], the MIC came to 5.78 µM (≈ 15 µg/mL) in assay [1]; 4.82 µM (≈ 12.5 µg/mL) in [2]; 5.78 µM (≈ 15 µg/mL) in assay [3]; 2.89 µM (≈ 7.5 µg/mL) in assay [4]; 2.89 µM (≈ 7.5 µg/mL) in [5]; 0.463 µM (≈ 1.2 µg/mL) in [6]. For the same compound, the MIC in assay [7] is 1.93 µM (≈ 5 µg/mL).
Turning to `CC[C@H](C)[C@H](NC(=O)[C@@H](NC(=O)[C@H](C)NC(=O)[C@H](CCCCN)NC(=O)[C@H](C)NC(=O)[C@@H](NC(=O)[C@H](CCCCN)NC(=O)CNC(=O)[C@H](CC(C)C)NC(=O)[C@H](C)NC(=O)[C@@H](NC(=O)CNC(=O)[C@H](C)NC(=O)[C@H](CCCCN)NC(=O)[C@@H](NC(=O)[C@H](C)NC(=O)[C@H](CCSC)NC(=O)CN)[C@@H](C)O)[C@@H](C)O)C(C)C)C(C)C)C(=O)NCC(=O)N[C@@H](C)C(=O)N[C@@H](C)C(=O)N[C@@H](CC(C)C)C(N)=O` [GMATKAGTALGKVAKAVIGAAL], the MIC is 25 µM (≈ 50 µg/mL) in [8]; at least 100 µM in [9]; at least 100 µM in assay [10]; above 100 µM in [11]; above 50 µM in assay [12]; 160 µM and 100 µM in [13]. For the same compound, in assay [14], the MIC is at least 100 µM.
Take `CC[C@H](C)[C@H](NC(=O)[C@@H](NC(=O)[C@@H]1CCCN1C(=O)[C@H](CO)NC(=O)[C@H](CC(C)C)NC(=O)[C@H](CCCCN)NC(=O)[C@H](CCCCN)NC(=O)[C@H](Cc1ccccc1)NC(=O)[C@H](CC(C)C)NC(=O)[C@H](CCCCN)NC(=O)[C@H](CCCCN)NC(=O)[C@H](Cc1ccccc1)NC(=O)[C@H](CCCCN)NC(=O)[C@H](CCCCN)NC(=O)[C@H](CCCN=C(N)N)NC(=O)[C@H](Cc1ccccc1)NC(=O)[C@H](CCCN=C(N)N)NC(=O)[C@H](CCCCN)NC(=O)[C@H](Cc1ccccc1)NC(=O)[C@H](CCCN=C(N)N)NC(=O)CN)C(C)C)C(=O)N1CCC[C@H]1C(=O)N[C@@H](CC(C)C)C(=O)N[C@@H](CC(C)C)C(=O)N[C@@H](Cc1cnc[nH]1)C(=O)N[C@@H](CC(C)C)C(=O)NCC(N)=O` [GRFKRFRKKFKKLFKKLSPVIPLLHLG]: the MIC is 2 µM (≈ 6.56 µg/mL) in [15]; 2 µM (≈ 6.56 µg/mL) in [16]; 8 µM (≈ 26.3 µg/mL) in [17]; 4 µM (≈ 13.1 µg/mL) in assay [18]; 5.66 µM (≈ 18.6 µg/mL) in assay [19]; 1 µM (≈ 3.28 µg/mL) in [11]. Further, the MIC in [20] was 0.25 µM (≈ 0.821 µg/mL); in assay [21], 4 µM (≈ 13.1 µg/mL); in [22] it was 1 µM (≈ 3.28 µg/mL); in assay [23], 0.5 µM (≈ 1.64 µg/mL); in assay [24], 1 µM (≈ 3.28 µg/mL); in [25], 2 µM (≈ 6.56 µg/mL). Further, the minimal inhibitory concentration (MIC) in assay [26] worked out at 1 µM (≈ 3.28 µg/mL); in assay [27], 1 µM (≈ 3.28 µg/mL); in [28], 2 µM (≈ 6.56 µg/mL); in [29], 2.83 µM (≈ 9.28 µg/mL); in [13], 2 µM (≈ 6.56 µg/mL); in assay [30], 2 µM (≈ 6.56 µg/mL). Moreover, the minimum inhibitory concentration (MIC) in [31] is 4 µM (≈ 13.1 µg/mL); in assay [7], 4 µM (≈ 13.1 µg/mL); in [32], 1 µM (≈ 3.28 µg/mL); in [33], 2 µM (≈ 6.56 µg/mL); in assay [34] it was 2.83 µM (≈ 9.28 µg/mL).

The values above are taken from DBAASP.
